Measured values as given in patent US9802918B2, “Pyridineamine compounds useful as Pim kinase inhibitors” (Incyte Corporation, priority 2015, dated 2017).

Experiments:
Type in all cases: biochemical
Pim-2 = Pim-2 (Homo sapiens (Human), UniProt Q9P1W9); assay: Pim-2 kinase assay; conditions: 1 mM ATP; read-out: Pim2 IC50
Summary of the method: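 Pim-2 (1 nM) with fluorescein-CREBtide ([…]) and 1 mM ATP in Tris pH 7.5, MgCl2, DTT buffer, 2 h at 25 °C. Stopped with EDTA plus Tb-anti-CREB pSer133 antibody; phosphorylation read by TR-FRET after 30 min.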

Pim-1 = Pim-1 (Homo sapiens (Human), UniProt P11309); assay: Pim-1 kinase assay; conditions: 1 mM ATP; read-out: Pim1 IC50
Method: Supplementation of the STOP buffer with beads and stopping the reactions were done under reduced light. Prior to the stopping reactions STOP buffer with beads was preincubated for 1 h in the dark at room temperature. After stopping the reactions, plates were incubated for 1 h in the dark at room temperature before reading on a PHERAstar FS plate reader (BMG Labtech) under reduced light.

Pim-3 = Pim-3 (Homo sapiens (Human), UniProt Q86V86); assay: Pim-3 kinase assay; conditions: 1 mM ATP; read-out: Pim3 IC50
Summary of the method: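 Human Pim-3 at 1.25 pM phosphorylated […] biotin-BAD peptide with 1 mM ATP for 1 h at 25° C, in pH 7.5 Tris buffer with 5 mM MgCl2 and 5 mM DTT. Reactions were stopped with EDTA buffer containing phospho-Bad (Ser112) antibody and AlphaScreen donor/acceptor beads. Plates were read after 1 h dark incubation at room temperature.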

Pim-2, sequence (Q9P1W9 whole entry): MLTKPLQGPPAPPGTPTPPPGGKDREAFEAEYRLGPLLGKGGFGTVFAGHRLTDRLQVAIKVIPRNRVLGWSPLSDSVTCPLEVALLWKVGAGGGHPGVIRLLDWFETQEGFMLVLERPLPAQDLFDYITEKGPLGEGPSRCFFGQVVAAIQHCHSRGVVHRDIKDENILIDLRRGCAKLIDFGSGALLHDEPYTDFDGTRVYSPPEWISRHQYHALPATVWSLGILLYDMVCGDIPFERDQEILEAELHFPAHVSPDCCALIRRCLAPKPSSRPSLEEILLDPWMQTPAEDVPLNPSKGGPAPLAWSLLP
Pim-1, sequence (P11309 whole entry): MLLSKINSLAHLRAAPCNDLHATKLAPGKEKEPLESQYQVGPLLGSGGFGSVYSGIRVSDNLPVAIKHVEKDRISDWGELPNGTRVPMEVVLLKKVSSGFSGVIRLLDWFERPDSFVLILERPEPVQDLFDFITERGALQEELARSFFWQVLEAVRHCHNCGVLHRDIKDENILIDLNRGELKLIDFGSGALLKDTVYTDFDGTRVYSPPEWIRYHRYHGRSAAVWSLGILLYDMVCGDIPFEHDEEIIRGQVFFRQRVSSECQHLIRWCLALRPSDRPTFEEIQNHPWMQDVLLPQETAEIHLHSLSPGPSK

SMILES: Nc1cc(F)c(-c2c(F)cccc2F)nc1CNc1cnccc1N1C[C@@H](N)C[C@@H](C(F)(F)F)C1 [Example 109, 2-[({4-[(3S,5R)-3-Amino-5-(trifluoromethyl)piperidin-1-yl]pyridin-3-yl}amino)methyl]-6-(2,6-difluorophenyl)-5-fluoropyridin-3-amine]
- IC50 (Pim-2): ≤ 100 nM
- IC50 (Pim-1): < 10 nM
- IC50 (Pim-3): ≤ 10 nM

SMILES: C[C@@H]1C[C@H](N)CN(c2ccnc(F)c2NCc2ccc(F)c(-c3c(F)cccc3F)n2)C1 [Example 110, 4-[(3S,5R)-3-Amino-5-methylpiperidin-1-yl]-N-{[6-(2,6-difluorophenyl)-5-fluoropyridin-2-yl]methyl}-2-fluoropyridin-3-amine]
- IC50 (Pim-2): ≤ 100 nM
- IC50 (Pim-1): < 10 nM
- IC50 (Pim-3): ≤ 10 nM

SMILES: CC(Nc1cnccc1N1C[C@H](C)C[C@H](N)C1)c1ccc(F)c(-c2c(F)cccc2F)n1 (stereo partly drawn) [Example 111, 4-[(3S,5R)-3-Amino-5-methylpiperidin-1-yl]-N-{1-[6-(2,6-difluorophenyl)-5-fluoropyridin-2-yl]ethyl}pyridin-3-amine]
- IC50 (Pim-2): ≤ 100 nM
- IC50 (Pim-1): < 10 nM
- IC50 (Pim-3): ≤ 10 nM
